The test system of data set [1] is C2C12. Nature of the data set: Cytotoxicity against mouse C2C12 cells assessed as reduction in cell viability at 0.78 to 100 uM measured after 24 hrs by MTT assay. The format is toxicity, cell-based. Conditions: c2c12, 24 h, dose 0.78-100 µM. Background: Tetrazolium assays rely on reduction of a dye to a coloured formazan, in cell work by metabolically active cells.

A short description of data set [2]: Upregulation of utrophin expression in mouse C2C12 cells assessed as fold increase at 800 nM measured after 72 hrs by In-cell ELISA method. The format is functional. In general terms: An ELISA detects its analyte on a solid surface through an enzyme-linked reagent.
The test system of data set [3] is C2C12. Kind of data set: Upregulation of utrophin mRNA expression in mouse C2C12 cells at 800 nM measured after 72 hrs by qRT-PCR analysis. The format is functional, cell-based.
In data set [4] the test system is C2C12. Nature of the data set: Upregulation of utrophin mRNA expression in mouse C2C12 level measured after 72 hrs by qRT-PCR analysis. The format is functional, cell-based. Conditions: dose 200-800 nM. (In general: In qPCR the cycle at which signal appears reflects the starting amount.)
Data set [5] deals with C2C12. Nature of the data set: Upregulation of utrophin protein expression in mouse C2C12 level measured after 72 hrs by Westernblot analysis. The format is functional, cell-based. Conditions: dose 200-800 nM.
The nature of data set [6]: Upregulation of utrophin protein expression in mouse C2C12 cells assessed as fold increase at 800 nM measured after 72 hrs by Western blot analysis. The class given is functional.
Data set [7] in a line: Upregulation of utrophin mRNA expression in mouse C2C12 cells assessed as fold increase at 800 nM measured after 72 hrs by qRT-PCR analysis. The format is functional.
Data set [8] is described as follows: Upregulation of utrophin protein expression in human patient derived KM1328 cells assessed as fold increase at 800 nM measured after 72 hrs by Western blot analysis. The format is functional.
The nature of data set [9]: Binding affinity to recombinant AhR/ARNT (unknown origin) assessed as dissociation constant incubated for 30 mins by fluorescence quenching analysis. Further details: species or system Homo sapiens.
A short description of data set [10]: Aqueous solubility of the compound in DMSO measured after 2 hrs by turbidity assay. The class given is physicochemical.
Data set [11] in a line: Metabolic stability in rat liver microsomes assessed as intrinsic clearance at 5 uM preincubated for 5 mins followed by NADPH addition and measured upto 60 mins by LC-MS analysis. The class given is ADME, Microsome. Conditions: time < 65 min, read-out: CLH.
Data set [12] can be described thus: Stability in human plasma assessed as remaining compound at 50 uM measured after 2 hrs by LC-MS and HPLC analysis. The format is ADME, cell-free. Conditions: read-out: Stability.
The nature of data set [13]: Stability in human serum assessed as remaining compound at 50 uM measured after 2 hrs by LC-MS and HPLC analysis. The format is ADME, cell-free. Conditions: read-out: Stability.
Data set [14] in a line: Lipophilicity, logD of the compound in cyclohexane/PBS at pH 7.4 measured after 1 hr by LC-MS and HPLC analysis. The class given is physicochemical. Conditions: pH 7.4, 1 h.
Data set [15] in a line: Lipophilicity, logD of the compound in octanol/PBS at pH 7.4 measured after 1 hr by LC-MS and HPLC analysis. The format is physicochemical.
Data set [16] is filed under the species Homo sapiens. Kind of data set: Binding affinity to recombinant AhR/ARNT (unknown origin) assessed as binding constant incubated for 30 mins by fluorescence quenching analysis. Conditions: filed as antagonist.
Data set [17] deals with T1, Aryl hydrocarbon receptor (Mus musculus, UniProt P30561).
T1 sequence (P30561 whole entry): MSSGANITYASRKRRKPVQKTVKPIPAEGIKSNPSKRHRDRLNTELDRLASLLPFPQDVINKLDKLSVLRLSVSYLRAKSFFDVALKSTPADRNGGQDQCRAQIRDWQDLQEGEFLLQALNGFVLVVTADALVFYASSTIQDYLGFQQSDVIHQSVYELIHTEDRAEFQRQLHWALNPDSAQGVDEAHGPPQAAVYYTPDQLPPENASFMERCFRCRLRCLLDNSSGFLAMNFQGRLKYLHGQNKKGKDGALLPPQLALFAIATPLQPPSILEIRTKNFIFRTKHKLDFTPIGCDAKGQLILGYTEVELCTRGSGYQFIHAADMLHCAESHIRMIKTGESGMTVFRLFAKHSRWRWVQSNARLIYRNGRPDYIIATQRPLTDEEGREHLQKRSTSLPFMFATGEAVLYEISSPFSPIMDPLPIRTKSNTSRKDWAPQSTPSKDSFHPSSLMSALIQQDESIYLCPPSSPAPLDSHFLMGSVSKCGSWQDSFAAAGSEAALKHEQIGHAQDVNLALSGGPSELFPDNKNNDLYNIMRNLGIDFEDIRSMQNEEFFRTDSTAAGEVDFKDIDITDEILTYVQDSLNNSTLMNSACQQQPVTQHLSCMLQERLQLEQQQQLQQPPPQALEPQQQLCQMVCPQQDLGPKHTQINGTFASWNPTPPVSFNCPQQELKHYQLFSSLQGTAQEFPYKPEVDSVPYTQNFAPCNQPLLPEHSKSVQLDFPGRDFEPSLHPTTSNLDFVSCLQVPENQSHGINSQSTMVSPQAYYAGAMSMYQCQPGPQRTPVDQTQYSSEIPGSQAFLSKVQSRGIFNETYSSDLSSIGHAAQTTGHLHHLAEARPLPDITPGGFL
Nature of the data set: Induction of AhR nuclear translocation in mouse C2C12 cells at 800 nM measured after 2 hrs by Hoechst 33258 staining based fluorescence microscopy analysis. The format is cell-based. Conditions: c2c12, 2 h, 0.8 µM.

Data set [18] has as its target T1, Aryl hydrocarbon receptor. Nature of the data set: Antagonist activity at AhR in mouse C2C12 cells assessed as reduction in ITE induced AhR nuclear translocation at 800 nM measured after 2 hrs by Hoechst 33258 staining based fluorescence microscopy analysis. The class given is cell-based. Conditions: c2c12, 2 h, 0.8 µM.
Data set [19] deals with T1, Aryl hydrocarbon receptor. Kind of data set: Antagonist activity at AhR in mouse C2C12 cells assessed as reversal of TCDD inhibited myogenesis by measuring fold change at 800 nM measured after 7 days by Hoechst 33258 staining based fluorescence microscopy analysis. Conditions: c2c12, 168 h, 0.8 µM, time 7 day. The class given is cell-based.
Data set [20] can be described thus: Upregulation of utrophin expression in mouse C2C12 cells assessed as fold increase at 3 uM measured after 72 hrs by In-cell ELISA method. The format is functional.
Data set [21] in a line: Upregulation of utrophin protein expression in human patient derived KM1328 cells assessed as fold increase at 3 uM measured after 72 hrs by […]. The class given is functional.
The target in data set [22] is T1, Aryl hydrocarbon receptor. Kind of data set: Antagonist activity at AhR in mouse C2C12 cells assessed as reduction in ITE induced AhR nuclear translocation measured after 2 hrs by Hoechst 33258 staining based fluorescence microscopy analysis. The format is cell-based. Conditions: c2c12, 2 h.

≈ marks a conversion by molar mass, not a printed value. Calls of active or inactive are those of the source. The calls are words filed in the database; no cut-off is given here.

Broadly, the Kd is the constant that tells how readily two partners part at equilibrium. Broadly, the kinetic solubility is solubility judged after dilution from a stock solution rather than from solid. By logD is commonly meant lipophilicity at a set pH, counting ionised and neutral species. A high value points to a more lipophilic compound. Take `CS(=O)(=O)c1ccc2nc(NCc3ccc(F)cc3)ncc2c1`: the Activity result in data set [1] was “Toxic”; in [4] it was “Dose-Dependent Effect”; in data set [5], “Dose-Dependent Effect”; in data set [17], “Not Active”; in [18], “Active”. In addition, the “fold change (FC)” value in [2] worked out at 2.14; in data set [6] it was 2.72; in data set [7], 2.11; in data set [8] it was 2.3; in data set [19] it was 2. Moreover, the result in data set [3] was Active. For the same compound, the Kd in data set [9] worked out at 41.7 nM. This compound returned a kinetic solubility at 2 h in data set [10] of 30 µM (≈ 9.94 µg/mL). The microsomal CLint at 5 µM in data set [11] was 6.66 µL/min/mg. Moreover, the values for the remaining at 2 h, 50 µM in data set [12] and in [13] were 69.2% and 70%, respectively. Moreover, the logD in data set [14] is 0.2. This compound also gave a pH-dependent lipophilicity (logD) at 1 h in data set [15] of 2.46. For the same compound, the Ka in data set [16] worked out at 24 µM⁻¹.
With `O=C(/C=C/C=C/c1ccc2c(c1)OCO2)N1CCCCC1` [PIPERINE], the entries for the “fold change (FC)” value in [20] and in data set [21] were 1.3 and 0.99, respectively. For the same compound, the Activity entry in data set [22] is “Not Active”.

For the origin of these results see ChEMBL document CHEMBL5506058, “Discovery of Quinazoline and Quinoline-Based Small Molecules as Utrophin Upregulators via AhR Antagonism for the Treatment of Duchenne Muscular Dystrophy” (J Med Chem, 2024).
